Measurements as given in ChEMBL document CHEMBL1201862, “PubChem BioAssay data set” (2004).
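1) Cells in 96-well plates. 2) Compound, 48 h, 5 concentrations. 3) Linear interpolation between surrounding doses. 4) Unreached endpoint = highest concentration. GI50 marks 50% less growth.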 The source made the active and inactive calls. Rule as the data show it: active = GI50 up to about 1.1 µM and inactive = higher.

What was measured:
Experiment in all cases: NCI anticancer screen, dose series, 48 h
[1] = system: UACC-62
[2] = system: SF-539
[3] = system: HL-60
[4] = system: M19-MEL
[5] = system: LOX IMVI
[6] = system: KM-20L2
[7] = system: UO-31
[8] = system: SK-MEL-28
[9] = system: HT-29
[10] = system: SK-MEL-2
[11] = system: DLD-1
[12] = system: Malme-3M
[13] = system: 786-0
[14] = system: NCI-H226
[15] = system: HOP-18
[16] = system: OVCAR-3
[17] = system: HCC 2998
[18] = system: DU-145
[19] = system: MDA-N
[20] = system: MCF7

| Compound | GI50 [1] | GI50 [2] | GI50 [3] | GI50 [4] | GI50 [5] | GI50 [6] | GI50 [7] | GI50 [8] | GI50 [9] | GI50 [10] | GI50 [11] | GI50 [12] | GI50 [13] | GI50 [14] | GI50 [15] | GI50 [16] | GI50 [17] | GI50 [18] | GI50 [19] | GI50 [20] |
| --- | --- | --- | --- | --- | --- | --- | --- | --- | --- | --- | --- | --- | --- | --- | --- | --- | --- | --- | --- | --- |
| CCN(CC)Cc1cc(Nc2c3ccccc3nc3c4ccccc4n(C)c23)ccc1O | 6.9 µM (inactive) | 3.87 µM (inactive) | 3.46 µM (inactive) | 7.85 µM (inactive) | 2.83 µM (inactive) | 5.45 µM (inactive) | 9.95 µM (inactive) | 4.43 µM (inactive) | 5.32 µM (inactive) | 20.7 µM (inactive) | 6.76 µM (inactive) | 13.7 µM (inactive) | 3.76 µM (inactive) | 29.2 µM (inactive) | 14.1 µM (inactive) | – | – | – | – | – |
| C=C1C2CCCC1C1(S(C)(=O)=O)CCCCC21O (centres undefined) | > 100 µM (inactive) | > 100 µM (inactive) | – | > 100 µM (inactive) | – | > 100 µM (inactive) | > 100 µM (inactive) | > 100 µM (inactive) | > 100 µM (inactive) | > 100 µM (inactive) | > 100 µM (inactive) | > 100 µM (inactive) | > 100 µM (inactive) | > 100 µM (inactive) | > 100 µM (inactive) | > 100 µM (inactive) | > 100 µM (inactive) | – | – | – |
| NC(=O)COC(=O)c1c(Cl)nc2sccn12 | > 100 µM (inactive) | > 100 µM (inactive) | > 46 µM (inactive) | > 84.3 µM (inactive) | > 75.5 µM (inactive) | > 100 µM (inactive) | > 100 µM (inactive) | > 100 µM (inactive) | > 100 µM (inactive) | > 100 µM (inactive) | > 100 µM (inactive) | > 100 µM (inactive) | 19.1 µM (inactive) | > 100 µM (inactive) | > 100 µM (inactive) | > 43.7 µM (inactive) | > 100 µM (inactive) | – | – | – |
| O=c1[nH]ccc(CNC23CC4CC(CC(C4)C2)C3)c1O | > 100 µM (inactive) | > 100 µM (inactive) | 41.3 µM (inactive) | > 100 µM (inactive) | – | > 100 µM (inactive) | 88.3 µM (inactive) | – | > 100 µM (inactive) | > 100 µM (inactive) | > 100 µM (inactive) | > 100 µM (inactive) | > 100 µM (inactive) | > 100 µM (inactive) | > 100 µM (inactive) | > 100 µM (inactive) | > 100 µM (inactive) | – | – | – |
| CCN(CC)CCNc1ccc2nnn3c4ccc(O)cc4c(=O)c1c23 | 8.39 µM (inactive) | 1.71 µM (inactive) | 2.05 µM (inactive) | – | 1.21 µM (inactive) | 4.37 µM (inactive) | 0.608 µM (active) | 11.4 µM (inactive) | 3.33 µM (inactive) | 11.3 µM (inactive) | 2.09 µM (inactive) | 4.93 µM (inactive) | 1.24 µM (inactive) | 3.35 µM (inactive) | 20.5 µM (inactive) | 8.02 µM (inactive) | 1.52 µM (inactive) | 14.3 µM (inactive) | 4.09 µM (inactive) | 2.7 µM (inactive) |
| O=C(O)/C(Cl)=C(\Cl)C(=O)Nc1ccc(Cl)c(Cl)c1Cl | 13.3 µM (inactive) | 19.1 µM (inactive) | 21.4 µM (inactive) | 16.8 µM (inactive) | 17.4 µM (inactive) | 23.2 µM (inactive) | 16.3 µM (inactive) | 27.9 µM (inactive) | 20.3 µM (inactive) | 18.2 µM (inactive) | 24.5 µM (inactive) | 19.3 µM (inactive) | 18.2 µM (inactive) | 17.5 µM (inactive) | 16.3 µM (inactive) | 19 µM (inactive) | 18.9 µM (inactive) | – | – | – |
| CC(N)C(=O)OCN1C(=O)C2C3C=CC(C2C1=O)C1C2C(=O)N(COC(=O)C(C)N)C(=O)C2C31 (centres undefined) | 22.8 µM (inactive) | 22.9 µM (inactive) | 29.8 µM (inactive) | 23.6 µM (inactive) | 18.5 µM (inactive) | 28.2 µM (inactive) | 56.4 µM (inactive) | 21.9 µM (inactive) | 34.6 µM (inactive) | 20.6 µM (inactive) | 24.5 µM (inactive) | – | 20.8 µM (inactive) | 39.8 µM (inactive) | > 100 µM (inactive) | 33.6 µM (inactive) | 43.1 µM (inactive) | – | – | – |
| CC(C)(Oc1ccc(C(=O)c2ccc(Cl)cc2)cc1Cl)C(=O)N1CCN(c2ccccc2)CC1 | > 100 µM (inactive) | > 100 µM (inactive) | 60.8 µM (inactive) | > 100 µM (inactive) | > 100 µM (inactive) | > 100 µM (inactive) | 46.9 µM (inactive) | > 100 µM (inactive) | > 100 µM (inactive) | > 100 µM (inactive) | > 100 µM (inactive) | > 100 µM (inactive) | > 100 µM (inactive) | – | > 100 µM (inactive) | > 100 µM (inactive) | – | – | – | – |
| COC(=O)/N=C(\NC(=O)OC)Nc1ccc(Oc2ccccc2)cc1NC=O | 0.573 µM (active) | 0.433 µM (active) | 0.206 µM (active) | 0.312 µM (active) | 1.97 µM (inactive) | 0.242 µM (active) | 0.871 µM (active) | – | 0.348 µM (active) | – | 0.536 µM (active) | 0.579 µM (active) | 0.483 µM (active) | 0.977 µM (active) | > 100 µM (inactive) | 0.327 µM (active) | 0.968 µM (active) | – | – | – |
